Source: ChEMBL document CHEMBL1122308, “Bicyclic lactones derived from kainic acid as novel selective antagonists of neuroexcitatory amino acids” (J Med Chem, 1983)
pIC50: −log10 of the molar value.

What was measured:
Type in all cases: functional
[1] = species: Rattus norvegicus; assay: Percentage response to 0.1 mM of quisqualic acid at 2 mM in rat striatum slices.
[2] = species: Rattus norvegicus; assay: Percentage response to 0.5 mM of L-Glutamic acid at 2 mM in rat striatum slices.
[3] = species: Rattus norvegicus; assay: Percentage response to 0.1 mM of kainic acid (KA) at 2 mM in rat striatum slices.
[4] = species: Rattus norvegicus; assay: Percentage response to 30 uM of N-methyl-D-aspartic acid (NMDA) at 2 mM in rat striatum slices.
[5] = species: Rattus norvegicus; assay: Percentage response to 0.1 mM of quisqualic acid at 1 mM in rat striatum slices.
[6] = species: Rattus norvegicus; assay: Percentage response to 0.5 mM of L-Glutamic acid at 1.5 mM in rat striatum slices.
[7] = species: Rattus norvegicus; assay: Percentage response to 0.1 mM of kainic acid (KA) at 1 mM in rat striatum slices.
[8] = species: Rattus norvegicus; assay: Percentage response to 30 uM of N-methyl-D-aspartic acid (NMDA) at 1.5 mM in rat striatum slices.
[9] = species: Rattus norvegicus; assay: Concentration at which the compound inhibits half of the response of kainic acid (KA)
[10] = species: Rattus norvegicus; assay: Percentage response to 0.5 mM of L-Glutamic acid at 1 mM in rat striatum slices.
[11] = species: Rattus norvegicus; assay: Percentage response to 30 uM of N-methyl-D-aspartic acid (NMDA) at 1 mM in rat striatum slices.
[12] = species: Rattus norvegicus; assay: Percentage response to 0.1 mM of kainic acid (KA) at 3 mM in rat striatum slices.
[13] = species: Rattus norvegicus; assay: Percentage response to 0.1 mM of quisqualic acid at 3 mM in rat striatum slices.
[14] = species: Rattus norvegicus; assay: Percentage response to 0.5 mM of L-Glutamic acid at 3 mM in rat striatum slices.
[15] = species: Rattus norvegicus; assay: Percentage response to 30 uM of N-methyl-D-aspartic acid (NMDA) at 3 mM in rat striatum slices.
[16] = species: Rattus norvegicus; assay: Concentration at which the compound inhibits half of the response of N-methyl-D-aspartic acid (NMDA)

| Structure (SMILES) | Response [1] | Response [2] | Response [3] | Response [4] | Response [5] | Response [7] | pIC50 [9] | other results |
| --- | --- | --- | --- | --- | --- | --- | --- | --- |
| CC1(CI)OC(=O)C[C@@H]2[C@H](C(=O)O)NC[C@@H]21 (stereo partly drawn) | 111% | 79% | <8% | <49% | – | – | – | – |
| CC1(CSc2ccccc2)OC(=O)C[C@@H]2[C@@H](C(=O)O)NC[C@@H]21 (stereo partly drawn) | – | – | – | – | 76% | <16% | – | Response [6]: 84%; Response [8]: <10% |
| CC1(CSc2ccccc2)OC(=O)C[C@@H]2[C@H](C(=O)O)NC[C@@H]21 (stereo partly drawn) | – | – | – | – | <53% | <0% | 3.70 | Response [10]: 87%; Response [11]: <36% |
| CC1(CO)OC(=O)C[C@@H]2[C@@H](C(=O)O)NC[C@@H]21 (stereo partly drawn) | – | – | – | – | – | – | 2.52 | Response [12]: <50%; Response [13]: 94%; Response [14]: 106%; Response [15]: <36%; pIC50 [16]: 2.70 |
| CC1(C)OC(=O)C[C@@H]2[C@@H](C(=O)O)NC[C@@H]21 | 94% | 96% | 66% | <16% | – | – | 2.52 | pIC50 [16]: 3.52 |
| CC1(CI)OC(=O)C[C@@H]2[C@@H](C(=O)O)NC[C@@H]21 (stereo partly drawn) | 96% | 74% | <15% | <42% | – | – | – | – |
| NC(CCCP(=O)(O)O)C(=O)O (stereo not drawn) | – | – | – | – | <91% | 118% | – | Response [10]: <64%; Response [11]: <0% |
